Consider two compounds from patent US4101649A, “Hydrosoluble agents having non specific immunodepressive properties” (Agence Nationale de Valorisation de la Recherche (ANVAR), priority 1975, dated 1978).

Assay [1] relates to antiovalbumin antibodies. Briefly: Rate of antiovalbumin antibodies in guinea pigs three weeks after injection of ovalbumin in FIA emulsion. In kind it is in vivo, Hartley guinea pigs. The protocol: In the two series of tests the results of which are indicated hereafter, the influence of the active principles of the drugs according to the invention on the antiovalbumin antibodies rate was studied under the following conditions.
(§1) Female Hartley guinea pigs of 300-350 g. were given in the plantar pad of each of the two rear paws an emulsion composed of equal parts of incomplete Freund's adjuvant and a physiological solution containing ovalbumin (5 mg/guinea pig) and the preparations to be tested. The Freund's incomplete adjuvant (FIA), the Freund's complete adjuvant (FCA) marketed by the DIFCO Company and N-acetylmuramyl-L-alanyl-D-isoglutamine were used as controls.
The rate of antibodies with respect to ovalbumin was determined three weeks later after the injection in the conditions which were indicated in the French patent Nr 71 41610 of Nov. 19, 1971; it is expressed in μg of the antigen-antibody precipitate per ml of serum at the point of equivalence.

The test system of assay [2] is delayed hypersensivity to ovalbumin. Briefly: Delayed hypersensitivity to ovalbumin (cutaneous reaction) in guinea pigs. In kind it is in vivo, Hartley guinea pigs. As to conditions: 4 weeks after injection, 48 hours after 50 μg ovalbumine/animal sub-cutaneous. The protocol: as §1
In a second series of tests, the delayed hypersensivity to ovalbumin which produces a cutaneous reaction was measured four weeks after the injection; it is expressed by the diameter in millimetres of the erythema (E), of the induration (I) or of the necrosis (N), 48 hours after the sub-cutaneous injection of 50 micrograms of ovalbumin.

Where [3] appears, read: Table I, first series, 25 μg/animal + FIA, guinea pigs, 3 weeks after injection.
[4] abbreviates: Table II, second series, 25 μg/animal.
[5] abbreviates: Table II, second series, 100 μg/animal.

Values joined by “and” are separate entries in the source; they are usually repeats but may differ in a detail not shown here. Equal values may be shown once.

In the case of `CC(=O)NC1C(O)OC(CO)C(O)C1OC(C)C(=O)NC(C)C(=O)NC(CCC(=O)O)C(N)=O` [Mur-N-Ac-D-Ala-D-Glu-,α-NH2, 2-(2-acetamido-2-deoxy-3-O-D-glucopyranose)-D-propionyl-D-alanyl-D-isoglutamine], in assay [1] (Table I), the “Antiovalbumin antibodies rates compared with animals which received Freund's incomplete adjuvant only (in words)” value is reported as “much lower”. In assay [1] (setting [3]), the “Rate of antiovalbumin antibodies (individual animals)” value (shortened to “Rate … (individual animals)”) was 200 μg proteins / ml serum and 800 μg proteins / ml serum and 900 μg proteins / ml serum and 1300 μg proteins / ml serum and 1900 μg proteins / ml serum and 1500 μg proteins / ml serum; the “Rate of antiovalbumin antibodies, mean values” (from here on “Rate … mean values”) was determined as 1068 μg proteins / ml serum. Further, in assay [1] (setting [4]), the “Rate … (individual animals)” value was 1720 μg proteins/ ml serum and 660 μg proteins/ ml serum and 3600 μg proteins/ ml serum and 1800 μg proteins/ ml serum and 1760 μg proteins/ ml serum; the “Rate … mean values” is 1890 μg proteins/ ml serum. In assay [1] (setting [5]), the “Rate … (individual animals)” value was 950 μg proteins/ ml serum and 1000 μg proteins/ ml serum and 1200 μg proteins/ ml serum; the “Rate … mean values” is 1050 μg proteins/ ml serum. Besides, in assay [1] (Table II, tests 5 and 6 versus test 3), the “Inhibition of the adjuvant action of Mur-N-Ac-L-Ala-D-Glu-α-NH2 when administered simultaneously (in words)” value was “strongly inhibits the adjuvant action”. Also, in assay [2] (25 μg/animal), the “Delayed hypersensibility, cutaneous reaction (type letter not given)” value turned out to be 0 millimetres and the “Delayed hypersensibility, diameter of the induration (I)” value turned out to be 12 millimetres. Moreover, in assay [2] (100 μg/animal), the “Delayed hypersensibility, cutaneous reaction (type letter not given)” value was found to be 0 millimetres and the “Delayed hypersensibility, diameter of the erythema (E)” value is 5 millimetres.
On to `CC(=O)N[C@H]1C(O)O[C@H](CO)[C@@H](O)[C@@H]1O[C@H](C)C(=O)N[C@@H](C)C(=O)N[C@@H](CCC(=O)O)C(N)=O` (stereo partly drawn) [Mur-N-Ac-L-Ala-L-Glu-,α-NH2, 2-(2-acetamido-2-deoxy-3-D-glucopyranosyl)-D-propionyl-L-Ala-L-Glu-α-NH2], for which the “Antiovalbumin antibodies rates compared with animals which received Freund's incomplete adjuvant only (in words)” value in assay [1] (Table I) is “much lower”. In assay [1] (setting [3]), the “Rate … (individual animals)” value is 1140 μg proteins / ml serum and 3400 μg proteins / ml serum and 4200 μg proteins / ml serum and 1700 μg proteins / ml serum and 800 μg proteins / ml serum and 700 μg proteins / ml serum and 2800 μg proteins / ml serum; the “Rate … mean values” came to 2104 μg proteins / ml serum.
